No end group written: not given here.
Assays:
[1] = Phase 1 study in healthy volunteers, safety (SAD and MAD phases); format: in vivo, human
Description: Clinical experience with RIVPA (SEQ ID NO. 5) was obtained in a Phase 1 Study. The primary objective of the study was to determine the maximum tolerated dose (MTD) of single and repeat ascending doses of RIVPA (SEQ ID NO. 5) injectable solution following IV administration in healthy volunteers. The secondary objectives of this study included the assessment of the dose limiting toxicity (DLT), safety, PK and pharmacodynamic (PD) profiles of RIVPA (SEQ ID NO. 5) after single and repeated ascending IV doses of RIVPA (SEQ ID NO. 5). The study was divided into 2 phases: a single-ascending dose (SAD) phase and a multiple-ascending dose (MAD) phase.
Single IV doses of RIVPA (SEQ ID NO. 5) were well tolerated up to the maximum tested (8 mg/kg) and daily IV doses were well tolerated up to the maximum tested (6.5 mg/kg for 7 days). There were no dose limiting toxicities (DLTs) and the MTD was not reached in either phase of the trial. There were no deaths and no clinically significant, severe, or serious Adverse Events (AEs) reported during the study.
The most frequently reported TEAEs (observed in more than one subject who received RIVPA (SEQ ID NO. 5) and in a higher proportion (%) than placebo subjects) were study treatment procedure-related events (General Disorders and Administration Site Conditions) such as vessel puncture site haematoma, vessel puncture site reaction and vessel puncture site pain. All vessel puncture-related events were mild and determined to be unrelated to study treatment by the QI. The second most frequently reported TEAEs were Nervous System Disorders, specifically headache and dizziness; these events were only mild to moderate. All other TEAEs were reported by only 1 subject at any given dose level (maximum of 3 dose levels).
The incidence of “possibly-related” events was also higher in the 2 highest dose levels. However, due to the small sample sizes (4 subjects received active treatment in each cohort), it was not possible to conclude whether the results definitely represented a dose-response. The majority of the TEAEs were not related to study treatment and were mild in severity with only one event reported as moderate. The most frequently reported TEAEs for subjects who received RIVPA (SEQ ID NO. 5) were General Disorders and Administration Site Conditions (i.e., procedure-related events) such as vessel puncture site haematoma, vessel puncture site reaction, and vessel puncture site pain. All vessel puncture-related events were mild and judged to be unrelated to treatment. Increased alanine aminotransferase (ALT) and back pain were reported by 3 (15.0%) subjects who received RIVPA (SEQ ID NO. 5) and these events were observed by only one (10.0%) subject who received the placebo.

[2] = biological target: Sequestosome-1, also known as p62 (Homo sapiens, UniProt Q13501); details: cited from earlier work
Chain of Sequestosome-1, also known as p62 (Q13501 whole entry): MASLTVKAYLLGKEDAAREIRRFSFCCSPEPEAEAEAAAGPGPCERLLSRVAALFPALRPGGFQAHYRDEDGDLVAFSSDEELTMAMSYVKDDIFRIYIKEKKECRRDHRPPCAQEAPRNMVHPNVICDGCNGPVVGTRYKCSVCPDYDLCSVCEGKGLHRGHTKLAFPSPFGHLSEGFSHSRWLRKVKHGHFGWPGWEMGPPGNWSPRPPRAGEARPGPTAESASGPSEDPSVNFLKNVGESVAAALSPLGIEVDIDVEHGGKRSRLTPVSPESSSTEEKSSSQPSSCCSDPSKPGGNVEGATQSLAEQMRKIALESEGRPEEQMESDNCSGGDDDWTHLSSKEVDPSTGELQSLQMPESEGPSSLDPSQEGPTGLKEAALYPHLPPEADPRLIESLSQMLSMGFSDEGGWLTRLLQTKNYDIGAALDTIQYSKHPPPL

[3] = distribution of radiolabelled RIVPA to the mouse CNS; format: in vivo; details: dose levels of 20 or 90 mg/kg
Experimental: (§1) No effects of RIVPA (SEQ ID NO. 5) have been observed on the central nervous system (CNS) in any study at any dose level and little or no radiolabelled RIVPA (SEQ ID NO. 5) was found in the mouse CNS at dose levels of either 20 or 90 mg/kg.

[4] = toxicology and PK studies in mice with alternate routes of administration; details: mouse, in vivo, other: intraperitoneal or subcutaneous
[5] = test system: whole blood; test: ex vivo LPS stimulation of whole blood from Phase 1 subjects, cytokine/chemokine Activity Ratios; format: cell-based, human; details: dose range 0.15-2 mg/kg; 4 hours in vitro LPS stimulation of whole blood
Experimental: In ex vivo investigations using blood samples obtained during the Phase 1 healthy human volunteer study, a number of cytokine and chemokine analytes were quantified after 4 hours of in vitro stimulation of whole blood with LPS. The inter-individual variability in analyte levels was larger than any variation in time or response to RIVPA (SEQ ID NO. 5) or placebo administration and the data were therefore self-normalized using the individual pre-dose analyte level to standardize all responses for each individual subject (the Activity Ratio). RIVPA (SEQ ID NO. 5) effects on the analyte Activity Ratios (ARs) were neither constant throughout time, nor linearly dose responsive.

[6] = test system: human normal blood cells; test: proliferation of normal blood cells in vitro (human); format: cell-based
[7] = GLP 14-day repeat-dose IV toxicity study in mice; format: in vivo, mouse
Experimental: Two pilot and 2 definitive repeat-dose toxicity studies were conducted with RIVPA (SEQ ID NO. 5) in mice and cynomolgus monkeys using the intravenous (IV; slow bolus) route of administration.
The safety of multiple daily injections of RIVPA (SEQ ID NO. 5) has also been evaluated in GLP studies in mice and cynomolgus monkeys. In mouse, doses of 20, 60, or 90 mg/kg/day were given IV for 14 days. […] In survivors of all groups, there was no evidence of toxicity in any organ or abnormal biochemistry or hematology.
In the latter study, no effect on T-cell, B-cell or NK-cell counts was observed after 14 days of intravenous RIVPA (SEQ ID NO. 5) dosing in the NHP. […] Collectively, there is no indication of a potential for RIVPA (SEQ ID NO. 5) to cause immunotoxicity or non-specific immune activation. No hyperactivation or suppression of adaptive immune responses, or other impact on the phenotypes of cells associated with adaptive immunity, has been detected following RIVPA (SEQ ID NO. 5) administration.

[8] = Phase 1 study in healthy volunteers, pharmacokinetics; format: in vivo, human
Description: Following IV administration in human subjects and consistent with findings in animal studies, RIVPA (SEQ ID NO. 5) is cleared from the circulation within minutes. […] Following the rapid decline, a slower elimination phase was observed. […] Maximum plasma concentrations and total exposure levels were dose-proportional and clearance of RIVPA (SEQ ID NO. 5) from the circulation was rapid, consistent with the mouse and NHP experience.
In light of the high clearance and short elimination half-life, accumulation following daily injection was not expected to occur.

[9] = test system: battery of CNS receptors and ion channels; test: interaction with a battery of CNS receptors and ion channels in vitro; format: binding
Experimental: as §1

Substance: RIVPA-NH2 [RIVPA, L-arginyl-L-isoleucyl-L-valyl-L-prolyl-L-alanine-amide]
- subjects reporting increased alanine aminotransferase (ALT) and back pain ([1]; MAD phase, placebo one (10.0%) subject): 3 (15.0%) subjects
- MTD in humans ([1]; either phase of the trial, no DLTs): not reached
- single IV dose well tolerated up to the maximum tested ([1]; healthy volunteers, SAD phase): 8 mg/kg
- daily IV dose well tolerated up to the maximum tested ([1]; healthy volunteers, daily for 7 days, MAD phase): 6.5 mg/kg
- binding to p62 [2]: binds
- radiolabelled RIVPA found in the mouse CNS [3]: little or no
- NOAEL [4]: > 200 mg/kg
- anti-inflammatory status (higher TNF RII and IL-1ra, lower TNFα and IL-1β) [5]: evidence of an increase
- proliferation of human normal blood cells [6]: did not promote the proliferation
- adverse effects at 20 mg/kg ([7]; 20 mg/kg/day IV for 14 days, mouse): No adverse effects were observed
- mortality at 60 mg/kg ([7]; 60 mg/kg/day IV for 14 days, mouse): Lethality was also observed in 1 animal
- mortality at high dose ([7]; 90 mg/kg/day IV for 14 days, mouse): Deaths were observed
- immune-related organ weights, histopathology, hematology and clinical chemistry ([7]; mouse 14-day toxicity study): no changes were observed
- pre-dose concentrations on Days 5, 6, 7 and Day 8 ([8]; daily IV for 7 days, all subjects): below the lower limit of quantitation
- Tmax ([8]; human, plasma, intravenous, after start of infusion, dose range 0.15 mg/kg to 8 mg/kg, read-out: mean time of maximum concentration (Tmax)): 4 to 4.8 min
- time after start of infusion for plasma levels to decrease to less than 10 percent of Cmax ([8]; single-dose phase, 4-minute IV infusion): ≤ 9 min
- maximum plasma concentrations and total exposure levels versus dose ([8]; single-dose phase, IV): dose-proportional
- interaction with CNS receptors and ion channels [9]: No interaction was detected
